What was measured:
[1] = tested on: parathyroid cell calcium receptor; experiment: Cl^- current in Xenopus oocytes injected with (bovine) parathyroid cell mRNA; assay type: cell-based; details: fendiline 100 μM
Experimental: (§1) Following incubation, an oocyte was placed into a 100-μl plastic chamber and superfused with MBS at a flow rate of 0.5 ml/min using a peristaltic pump. Test molecules or inorganic polycations were added by rapidly moving the tubing into different buffers. Recording and current passing electrodes were constructed from thin-wall capillary tubing pulled to a resistance of 1-3 Mohms and filled with 3M KCl. […] Currents were recorded directly onto a strip chart recorder.

[2] = molecular target: T1, parathyroid cell calcium receptor (Bos taurus, UniProt P35384); experiment: cell-based; assay type: cell-based
T1 sequence (P35384 21-1085 limits assumed): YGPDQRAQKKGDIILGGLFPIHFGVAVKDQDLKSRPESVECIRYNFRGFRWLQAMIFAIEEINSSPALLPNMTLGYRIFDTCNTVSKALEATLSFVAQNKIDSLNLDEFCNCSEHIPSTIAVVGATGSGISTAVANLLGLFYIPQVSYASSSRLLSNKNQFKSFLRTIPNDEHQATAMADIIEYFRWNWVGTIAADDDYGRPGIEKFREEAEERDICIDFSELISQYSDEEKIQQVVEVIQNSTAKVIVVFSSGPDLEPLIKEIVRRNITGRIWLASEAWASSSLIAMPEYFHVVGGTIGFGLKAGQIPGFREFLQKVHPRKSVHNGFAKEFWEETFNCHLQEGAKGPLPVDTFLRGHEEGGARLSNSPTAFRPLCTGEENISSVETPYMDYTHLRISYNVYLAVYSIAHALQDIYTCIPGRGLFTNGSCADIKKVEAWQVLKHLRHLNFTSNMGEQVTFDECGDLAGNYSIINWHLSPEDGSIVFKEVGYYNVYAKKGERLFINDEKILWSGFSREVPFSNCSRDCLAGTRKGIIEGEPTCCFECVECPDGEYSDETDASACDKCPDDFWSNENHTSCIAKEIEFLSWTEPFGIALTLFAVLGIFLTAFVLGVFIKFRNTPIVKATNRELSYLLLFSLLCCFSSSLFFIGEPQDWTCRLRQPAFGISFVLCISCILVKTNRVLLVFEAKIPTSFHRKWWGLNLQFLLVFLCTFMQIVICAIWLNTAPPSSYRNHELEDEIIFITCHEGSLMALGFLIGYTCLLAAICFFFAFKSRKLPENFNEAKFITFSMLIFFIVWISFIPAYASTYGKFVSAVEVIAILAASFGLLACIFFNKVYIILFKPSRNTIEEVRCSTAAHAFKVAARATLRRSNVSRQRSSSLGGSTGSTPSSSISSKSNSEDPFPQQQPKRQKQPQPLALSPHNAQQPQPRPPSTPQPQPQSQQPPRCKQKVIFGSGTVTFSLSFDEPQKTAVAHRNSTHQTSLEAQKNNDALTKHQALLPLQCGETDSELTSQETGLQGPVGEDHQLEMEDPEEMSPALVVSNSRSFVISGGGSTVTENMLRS
Experimental: For example,.bovine parathyroid cells loaded with fura-2 are initially suspended in buffer containing 0.5 mM CaCl2. A test substance is added to the cuvette in a small volume (5-15 μl) and changes in the fluorescence signal are measured. Cumulative increases in the concentration of the test substance are made in the cuvette until some predetermined concentration is achieved or no further changes in fluorescence are noted.
(§2) This section describes procedures used to obtain and treat parathyroid cells from calves and humans. […] Human parathyroid glands, were obtained from patients undergoing surgical removal of parathyroid tissue for primary or uremic hyperparathyroidism (uremic HPT), and were treated similarly to bovine tissue.
Glands were trimmed of excess fat and connective tissue and then minced with fine scissors into cubes approximately 2-3 mm on a side. Dissociated parathyroid cells were prepared by collagenase digestion and then purified by centrifugation in Percoll buffer. The resultant parathyroid cell preparation was essentially devoid of red blood cells, adipocytes, and capillary tissue as assessed by phase contrast microscopy and Sudan black B staining. Dissociated and purified parathyroid cells were present as small clusters containing 5 to 20 cells.
The cells were then transferred to plastic flasks (75 or 150 cm^2 ; Falcon) and incubated overnight at 37° C. in a humid atmosphere of 5% CO2. No serum is added to these overnight cultures, since its presence allows the cells to attach to the plastic, undergo proliferation, and dedifferentiate. Cells cultured under the above conditions were readily removed from the flasks by decanting, and show the same viability as freshly prepared cells.
The cells were then pelleted, resuspended in the same buffer, but lacking the ester, and incubated a further 15 minutes at 37° C. The cells were subsequently washed twice with PCB containing 0.5 mM CaCl2 and 0.5% BSA and maintained at room temperature (about 20° C.). Immediately before use, the cells were diluted five-fold with prewarmed 0.5mM CaCl2 -PCB to obtain a final BSA concentration of 0.1%. The concentration of cells in the cuvette used for fluorescence recording was 1-2×10^6 /ml.
The fluorescence of indicator-loaded cells was measured at 37° C. in a spectrofluorimeter (Biomedical Instrumentation Group, University of Pennsylvania, Philadelphia, Pa.) equipped with a thermostated cuvette holder and magnetic stirrer using excitation and emission wavelengths of 340 and 510 nm, respectively. […] Leakage of dye is dependent on temperature and most occurs within the first 2 minutes after warming the cells in the cuvette. Dye leakage increases only very slowly thereafter. To correct the calibration for dye leakage, cells were placed in the cuvette and stirred at 37° C. for 2-3 minutes. The cell suspension was then removed, the cells pelleted, and the supernatant returned to a clean cuvette. […] This estimate was subtracted from the apparent Fmin.
Dissociated bovine parathyroid cells were purified on gradients of Percoll and cultured overnight in serum-free medium. […] That is,

net positive charge = assay type: physicochemical; details: Table 1; at physiological pH
calcium receptor = molecular target: T2, calcium receptor (Homo sapiens, UniProt P41180); experiment: Xenopus oocytes injected with human parathyroid mRNA; assay type: cell-based
T2 construct: Xenopus oocytes injected with poly(A)+ mRNA from human hyperplastic parathyroid tissue
T2 sequence (P41180 20-1078): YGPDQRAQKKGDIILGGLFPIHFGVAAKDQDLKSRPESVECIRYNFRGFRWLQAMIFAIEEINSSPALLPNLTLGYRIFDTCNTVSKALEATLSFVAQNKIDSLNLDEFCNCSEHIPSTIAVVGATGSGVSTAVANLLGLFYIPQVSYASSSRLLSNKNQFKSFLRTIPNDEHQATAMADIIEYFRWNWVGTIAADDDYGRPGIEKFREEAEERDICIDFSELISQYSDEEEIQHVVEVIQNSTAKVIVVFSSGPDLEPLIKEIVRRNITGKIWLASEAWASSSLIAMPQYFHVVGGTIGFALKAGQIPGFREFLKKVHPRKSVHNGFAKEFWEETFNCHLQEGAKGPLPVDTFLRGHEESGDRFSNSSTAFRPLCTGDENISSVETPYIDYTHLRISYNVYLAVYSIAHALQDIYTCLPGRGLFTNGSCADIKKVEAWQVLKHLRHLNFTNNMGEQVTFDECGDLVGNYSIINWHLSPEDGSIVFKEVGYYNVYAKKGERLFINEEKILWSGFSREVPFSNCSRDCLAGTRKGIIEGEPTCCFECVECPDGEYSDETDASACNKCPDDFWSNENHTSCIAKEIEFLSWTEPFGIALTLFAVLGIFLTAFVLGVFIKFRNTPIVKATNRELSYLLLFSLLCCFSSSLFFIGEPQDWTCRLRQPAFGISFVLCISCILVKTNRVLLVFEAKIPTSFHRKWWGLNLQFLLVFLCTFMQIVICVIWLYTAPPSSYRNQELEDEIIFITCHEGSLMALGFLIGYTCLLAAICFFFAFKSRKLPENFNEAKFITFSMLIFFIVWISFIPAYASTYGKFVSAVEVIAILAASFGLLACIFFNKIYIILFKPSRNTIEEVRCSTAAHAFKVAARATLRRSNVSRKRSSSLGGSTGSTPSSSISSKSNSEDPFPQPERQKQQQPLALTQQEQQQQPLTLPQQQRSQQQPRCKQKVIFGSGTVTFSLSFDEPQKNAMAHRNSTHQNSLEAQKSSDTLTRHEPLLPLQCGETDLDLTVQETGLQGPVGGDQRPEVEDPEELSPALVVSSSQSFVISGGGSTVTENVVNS
Experimental: Oocytes were injected with poly(A)+-enriched mRNA from human parathyroid tissue (hyperplastic glands from a case of secondary HPT).
as §1
Using this screen allows one to test for an action directly on the calcium receptor. Oocytes expressing the calcium receptor also responded to several molecules active on intact parathyroid cells when screened as follows. […] This offers rather compelling evidence showing that these molecules act on the calcium receptor or on some other protein intimately associated with its function.

[3] = tested on: L-type voltage-sensitive Ca^2+ channel; experiment: block of extracellular Ca^2+-induced increases in [Ca^2+]i in rMTC 6-23 cells; assay type: cell-based, rat; details: read-out: IC50 for block of extracellular Ca^2+-induced increases in [Ca^2+]i
[4] = molecular target: T1, parathyroid cell calcium receptor; experiment: block of extracellular Ca^2+-evoked increases in [Ca^2+]i in bovine parathyroid cells (calcilytic); assay type: cell-based
rat osteoclasts = experiment: inhibition of bone resorption (pit formation on bovine cortical bone slices); assay type: cell-based; details: Osteoclast, 24 hours, read-out: IC50 for inhibition of bone resorption in vitro
Text: This was done by morphometric analysis of pit formation on thin slices of bovine cortical bone using scanning electron microscopy.

[5] = tested on: osteoclast calcium receptor; experiment: [Ca^2+]i (indo-1) in rat osteoclasts; assay type: cell-based; details: with or without 1 mM extracellular CaCl2
bovine parathyroid cells [6] = experiment: PTH secretion from bovine parathyroid cells; assay type: cell-based
Experimental: In most experiments, cells loaded with fura-2 were also used in studies of PTH secretion.
PTH secretion was measured by first suspending cells in PCB containing 0.5 mM CaCl2 and 0.1% BSA.

[7] = molecular target: T3, parathyroid cell calcium receptor (Homo sapiens, UniProt P41180); experiment: [Ca^2+]i (fura-2) in human parathyroid cells; assay type: cell-based; details: 1 μM
T3 construct: Dissociated parathyroid cells were prepared from a parathyroid adenoma obtained by surgery from a patient with primary hyperparathyroidism; endogenous in cells; host or cells: primary dissociated human parathyroid cells (adenoma or hyperplastic tissue from surgery)
T3 sequence (P41180 20-1078): T2 sequence (P41180 20-1078)
Experimental: as §2
Dissociated parathyroid cells were prepared from a parathyroid adenoma obtained by surgery from a patient with primary hyperparathyroidism.

bovine parathyroid cells [8] = experiment: inositol phosphate formation in bovine parathyroid cells; assay type: cell-based
Experimental: This section describes procedures measuring inositol phosphate formation. Membrane phospholipids were labeled by incubating parathyroid cells with 4 μCi/ml ^3 H-myo-inositol for 20-24 hours. Cells were then washed and resuspended in PCB containing 0.5 mM CaCl2 and 0.1% BSA. Incubations were performed in microfuge tubes in the absence or presence of various concentrations of organic polycation for different times. Reactions were terminated by the addition of 1 ml chloroform-methanol-12N HCl (200:100:1; v/v/v). Aqueous phytic acid hydrolysate (200 μl; 25 μg phosphate/tube). The tubes were centrifuged and 600 μl of the aqueous phase was diluted into 10 ml water.
Inositol phosphates were separated by ion-exchange chromatography using AG1-X8 in either the chloride- or formate-form. When only IP3 levels were to be determined, the chloride-form was used, whereas the formate form was used to resolve the major inositol phosphates (IP3, IP2, and IP1). For determination of just IP3, the diluted sample was applied to the chloride-form column and the column was washed with 10 ml 30 mM HCl followed by 6 ml 90 mM HCl and the IP3 was eluted with 3 ml 500 mM HCl. The last eluate was diluted and counted. […] The eluted samples from the formate columns were rotary evaporated, the residues brought up in cocktail, and counted.
The isomeric forms of IP3 were evaluated by HPLC. […]

bovine parathyroid cells [9] = assay type: cell-based
Experimental: This section describes measuring cyclic AMP levels. Cells were incubated as above for PTH secretion studies and at the end of the incubation, a 0.15-ml sample was taken and transferred to 0.85 ml of hot (70° C.) water and heated at this temperature for 5-10 minutes. The tubes were subsequently frozen and thawed several times and the cellular debris sedimented by centrifugation. Portions of the supernatant were acetylated and cyclic AMP concentrations determined by radioimmunoassay.
Bovine parathyroid cells were cultured for 16 hours with or without 100 ng/ml pertussis toxin. […] Each value is the mean±SEM of three experiments.

CC(NCCC(c1ccccc1)c1ccccc1)c1ccccc1 (racemic) [Fendiline, reference compound]
Cl^- current in oocytes [1]: oscillatory increases

C1CNCCNCCNCCNCCNCCN1 [Hexacyclen, 1,4,7,10,13,16-hexaaza-cyclooctadecane, reference compound]
potency relative to NPS 383 ([2]; [Ca^2+]i): 7 -fold | potency relative to pentaethylenehexamine ([2]; [Ca^2+]i): 25 -fold | Net (+) Charge (net positive charge): +6 | effective concentration for mobilization of intracellular Ca^2+ in oocytes (calcium receptor): 135 µM

NCCCNCCCCNCCCNCCCN(O)CCCNC(=O)Cc1c[nH]c2cccc(O)c12 [NPS 015]
IC50 [3]: 3 µM

NCCCCCCCCCCCCNC(=O)Cc1ccc(O)cc1O [NPS 021]
change in [Ca^2+]i by the compound itself ([4]; 0.5 mM extracellular Ca^2+): does not by itself cause any change in [Ca^2+ ]i | IC50 ([4]; bovine parathyroid cells): ~200 µM | IC100 ([4]; read-out: concentration abolishing the increase in [Ca^2+]i evoked by extracellular Ca^2+): ~500 µM

CC(Cc1ccccc1)NCCC(c1ccccc1)c1ccccc1 (stereo not drawn) [Prenylamine]
IC50 (rat osteoclasts): 10 µM | mobilization of [Ca^2+]i in rat osteoclasts [5]: mobilization of [Ca^2+ ]i

NCCCNCCCCNCCCN [Spermine]
inhibition of PTH secretion (bovine parathyroid cells [6]): inhibited PTH secretion to the same extent as extracellular Ca^2+

COCCOC(=O)C1=C(C)NC(C)=C(C(=O)OC(C)C)C1c1cccc([N+](=O)[O-])c1 (stereo not drawn) [nimodipine]
effect on sustained increases in [Ca^2+]i elicited by extracellular Mg^2+ [7]: not affected by nimodipine

protamine
increases in [Ca^2+]i [2]: rapid and transient increases in [Ca^2+ ]i | formation of IP3 (bovine parathyroid cells [8]): rapid (within 30 seconds) increase | cyclic AMP (+PTx) (bovine parathyroid cells [9]): 89 ± 9 % of control | cyclic AMP (control, without pertussis toxin) (bovine parathyroid cells [9]; 10 μM isoproterenol, 2.0 mM Ca^2+, or 0.5 mM Ca^2+ with 200 μM spermine, 30 μM neomycin B or 2 μg/ml protamine, mean±SEM of three experiments): 20 ± 4 % of control | inhibition of PTH secretion (bovine parathyroid cells [6]): inhibited PTH secretion to the same extent as extracellular Ca^2+

Source: US5688938A, “Calcium receptor-active molecules” (priority 1995, dated 1997)
